Reference: patent EP0943606A1, “BENZENESULFONAMIDE DERIVATIVES AND DRUGS CONTAINING THE SAME” (HOKURIKU SEIYAKU CO., LTD., priority 1996, dated 1998)

Tests used:
[1] = molecular target: T1, thromboxane A2 / prostaglandin H2 receptor (Cavia porcellus, UniProt A0A286Y4I8); test: Thromboxane A2 antagonistic effect (isolated trachea, U-46619 concentration-response curves, Schild); design: species or system male Hartley guinea-pigs; conditions: isolated guinea-pig trachea, contraction by U-46619, test compound treatment 5 minutes, indomethacin 3 × 10^-6M, method of Schild
T1 construct: tracheas were isolated from male Hartley guinea-pigs, and spiral specimens of approximately 2 cm length were prepared; from tissue; host or cells: isolated guinea-pig trachea (spiral strips)
T1 sequence (A0A286Y4I8 1-347): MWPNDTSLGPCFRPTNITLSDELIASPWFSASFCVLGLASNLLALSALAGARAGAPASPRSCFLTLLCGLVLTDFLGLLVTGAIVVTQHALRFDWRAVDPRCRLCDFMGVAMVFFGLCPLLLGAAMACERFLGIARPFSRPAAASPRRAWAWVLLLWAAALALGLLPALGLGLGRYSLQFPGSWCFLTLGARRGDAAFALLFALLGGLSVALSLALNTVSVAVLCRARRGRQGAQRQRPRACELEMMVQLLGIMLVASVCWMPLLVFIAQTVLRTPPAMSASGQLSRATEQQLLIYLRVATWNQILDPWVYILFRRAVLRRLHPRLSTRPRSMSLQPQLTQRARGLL
Experimental: According to an ordinary method, tracheas were isolated from male Hartley guinea-pigs, and spiral specimens of approximately 2 cm length were prepared. These specimens were suspended in organ baths that contained Krebs-Henseleit solution at 37°C under a resting tension of 1.5 g, and the changes in isometric tension were recorded. The first concentration-response curves were obtained by cumulative applications of 1 × 10^-9 to 3 × 10^-7M of U-46619 (Cayman, thromboxane A2 / prostaglandin H2 receptor agonist) in the organ baths. After treatments with test compounds at adequate concentrations for 5 minutes, the second concentration-response curves were obtained in the same manner as the first applications. pKB values were calculated using these two concentration-response curves according to the method of Schild [Pharmacological Review, Vol. 9, 242 (1957)]. Indomethacin (3 × 10^-6M, Sigma) was added beforehand to the organ bath to eliminate possible affections by thromboxane A2 and prostaglandin produced endogenously [Japan J. Pharmacol., Vol. 60, 227 (1992)].

[2] = test system: bronchoconstriction induced by U-46619; test: Inhibitory effect on bronchoconstriction induced by U-46619 (Konzett-Roessler); format: in vivo, Male Hartley guinea-pigs; conditions: Cavia porcellus; 0.3 mg/kg orally, 2 hours before U-46619 (4 µg/kg, cervical vein), anesthetized guinea-pigs, compared to control group; read-out: Inhibition rate (%)
Experimental: Airway resistance was evaluated according to the method of Konzett-Roessler [Naunyn-Schmiedberg's Arch. Exp. Path. Pharmak., Vol. 195, 71 (1940)]. Male Hartley guinea-pigs (about 400g wt.) were anesthetized with urethane (1.5g/kg, i.p.) and ventilated by an artificial respirator (Model 683; Harvard). At the same time, overflowed air volume above the pressure of about 12cm H2O was measured by using a sensor (Model 7020; Ugo Basile) and the value was used as an index of bronchoconstriction. 0.3 mg/kg (5 ml/kg) of test compounds suspended in 5% gum Arabic was administered orally to the guinea-pigs fasted beforehand for 24 hours. After 2 hours, U-46619 (4 µg/kg; Cayman) was administered through the cervical vein, and then maximal response was measured. Inhibitory rates compared to the control group were calculated based on the response rate normalized by the complete closure as 100%. […]

leukotriene D4 = molecular target: T2, leukotriene D4 (Cavia porcellus, UniProt Q2NNR5); test: Leukotriene D4 antagonistic effect (isolated trachea, leukotriene D4 concentration-response curves, Schild); design: species or system male Hartley guinea-pigs; conditions: isolated guinea-pig trachea, contraction by leukotriene D4, test compound treatment 30 minutes, indomethacin 1 × 10^-6M, method of Schild
T2 construct: tracheas were isolated from male Hartley guinea-pigs, and spiral specimens of approximately 2 cm length were prepared; from tissue; host or cells: isolated guinea-pig trachea (spiral strips)
T2 sequence (Q2NNR5 1-340): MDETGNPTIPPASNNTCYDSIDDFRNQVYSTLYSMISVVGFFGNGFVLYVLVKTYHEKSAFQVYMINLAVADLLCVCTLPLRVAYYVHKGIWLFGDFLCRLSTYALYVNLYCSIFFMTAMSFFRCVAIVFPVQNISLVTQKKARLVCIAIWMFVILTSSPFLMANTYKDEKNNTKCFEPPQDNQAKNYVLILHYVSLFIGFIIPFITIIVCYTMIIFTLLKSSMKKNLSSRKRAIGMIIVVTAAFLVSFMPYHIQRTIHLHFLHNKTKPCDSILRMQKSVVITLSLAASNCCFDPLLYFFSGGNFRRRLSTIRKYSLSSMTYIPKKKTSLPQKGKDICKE
Experimental: According to an ordinary method, tracheas were isolated from male Hartley guinea-pigs, and spiral specimens of approximately 2 cm length were prepared. These specimens were suspended isotonically in organ baths that contained Krebs-Henseleit solution at 37°C under a resting tension of 0.5g. After contractions with acetylcholine (1 × 10^-5M; Ovisot for injection, Daiichi Seiyaku), and the first concentration-response curves were obtained by cumulative applications of 10^-10 to 10^-8M of leukotriene D4 (ULTRA FINE) in the organ baths. After treatments with test compounds at adequate concentrations for 30 minutes, the second concentration-response curves were obtained in the same manner as the first applications. pKB values were calculated using these two concentration-response curves according to the method of Schild [Pharmacological Review, Vol. 9, 242 (1957)]. Indomethacin (1 × 10^-6M, Sigma) was added beforehand to the organ bath to eliminate possible affections by thromboxane A2 and prostaglandin produced by stimulus of leukotriene D4 [Japan J. Pharmacol., Vol. 60, 227 (1992)]. […]

[3] = test system: bronchoconstriction induced by leukotriene D4; test: Inhibitory effect on bronchoconstriction induced by leukotriene D4 (Konzett-Roessler); format: in vivo, Male Hartley guinea-pigs; conditions: Cavia porcellus; oral administration 2 hours before leukotriene D4 (1 µg/kg, cervical vein), anesthetized guinea-pigs, indomethacin and propranolol pretreated
Experimental: Airway resistance was evaluated according to the method of Konzett-Roessler [Naunyn-Schmiedberg's Arch. Exp. Path. Pharmak., Vol. 195, 71 (1940)]. Male Hartley guinea-pigs fasted beforehand for 24 hours were anesthetized with urethane, and then overflowed air volume was measured under artificial ventilation as an index of bronchoconstriction. Various doses of test compounds suspended in 5% gum Arabic were administered orally, and after 2 hours, leukotriene D4 (1 µg/kg; ULTRA FINE) was administered through the cervical vein. Then, values at 2 minutes were measured when maximum responses were obtained. Inhibitory rates compared to the control group were calculated based on the response rate normalized by the overflowed volume at complete closure as 100% bronchoconstriction rate, and the 50% inhibitory doses (ED50 values) were calculated using dose-inhibitory rate curves. Indomethacin (2mg/kg, i.v.) and propranolol (1mg/kg, i.v.) were administered at 10 minutes and 5 minutes before the administration of leukotriene D4, respectively. […]

human liver microsomes = test: In vitro metabolism test; format: in vitro ADME; conditions: 0.4mg protein/ml human liver microsomes, 0.02 mM test compound, NADPH-generating system, 37°C for 30 minutes, HPLC
Experimental: 0.05 mM EDTA-0.1M phosphate buffer (pH 7.4), distilled water, 0.4mg protein/ml human liver microsomes and 0.02 mM test compound were mixed in a test tube under ice-cooling. After the mixture was shaken at 37°C for 2 minutes beforehand, the mixture was added with a ready-mix of NADPH-generating system and then shaken at 37°C for 30 minutes. After the incubation, the reaction was stopped by cooling with ice. The mixture was added with acetonitrile and well mixted, and then centrifuged at 3000 rpm for 10 minutes. The resulting supernatant was subjected to HPLC measurement, and the residual rate of test compound was calculated from the ratio of a peak area of an unchanged compound in the reaction sample in comparison with a non-reaction mixture. Preparations of reagents and reaction mixtures were carried out by referring to Shin Seikagaku Koza, Vol. 5: Biological oxidation and drug metabolism edited by The Japanese Biochemical Society. […]

SMILES | Kb [1] | inhibition in vivo at 0.3 mg/kg [2] | Kb (leukotriene D4) | ED50 [3] | Residual rate (%) (human liver microsomes)
O=C(O)CCCc1ccc(C(CCC(F)(F)C(F)(F)C(F)(F)F)NS(=O)(=O)c2ccc(F)cc2)cc1 (centres unmarked) [Example 200, 4-[4-[4,4,5,5,6,6,6-Heptafluoro-1-(4-fluorophenylsulfonylamino)hexyl]phenyl]butyric Acid] | 10 nM | 82% | 251 nM | 0.21 mg/kg | 83%
O=C(O)CCCc1ccc(C(CCCC(F)(F)C(F)(F)F)NS(=O)(=O)c2ccc(Cl)cc2)s1 (centres unmarked) [Example 162, 4-[5-[1-(4-Chlorophenylsulfonylamino)-5,5,6,6,6-pentafluorohexyl]-2-thienyl]butyric Acid] | 0.398 nM | 85% | 251 nM | 1.3 mg/kg | 72%
O=C(O)CCCc1ccc(C(CCCC(F)(F)C(F)(F)C(F)(F)F)NS(=O)(=O)c2ccc(Cl)cc2)s1 (centres unmarked) [Example 177, 4-[5-[1-(4-Chlorophenylsulfonylamino)-5,5,6,6,7,7,7-heptafluoroheptyl]-2-thienyl]butyric Acid] | 6.31 nM | 93% | 398 nM | 0.69 mg/kg | 87%
O=C(O)CCCc1ccc(C(CCCC(F)(F)C(F)(F)F)NS(=O)(=O)c2ccc(F)cc2)cc1 (centres unmarked) [Example 189, 4-[4-[5,5,6,6,6-Pentafluoro-1-(4-fluorophenylsulfonylamino)hexyl]phenyl]butyric Acid] | 2.51 nM | 71% | 251 nM | 0.92 mg/kg | 88%
O=C(O)CCCc1ccc(C(CCCC(F)(F)C(F)(F)F)NS(=O)(=O)c2ccc(F)cc2)s1 (centres unmarked) [Example 163, 4-[5-[5,5,6,6,6-Pentafluoro-1-(4-fluorophenylsulfonylamino)hexyl]-2-thienyl]butyric Acid] | 0.794 nM | 92% | 398 nM | 0.78 mg/kg | 87%
O=C(O)CCCc1ccc(C(CCCC(F)(F)C(F)(F)F)NS(=O)(=O)c2ccc(Cl)cc2)cc1 (centres unmarked) [Example 188, 4-[4-[1-(4-Chlorophenylsulfonylamino)-5,5,6,6,6-pentafluorohexyl]phenyl]butyric Acid] | 0.794 nM | 88% | 200 nM | 1.6 mg/kg | 74%
O=C(O)CCCc1ccc(C(CCCC(F)(F)C(F)(F)C(F)(F)F)NS(=O)(=O)c2ccc(F)cc2)s1 (centres unmarked) [Example 178, 4-[5-[5,5,6,6,7,7,7-Heptafluoro-1-(4-fluorophenylsulfonylamino)heptyl]-2-thienyl]butyric Acid] | 3.16 nM | 89% | 398 nM | 0.67 mg/kg | 84%
O=C(O)CCCc1ccc(C(CCCC(F)(C(F)(F)F)C(F)(F)F)NS(=O)(=O)c2ccc(F)cc2)s1 (centres unmarked) [Example 183, 4-[5-[5,6,6.6-Tetrafluoro-5-trifluoromethyl-1-(4-fluorophenylsulfonylamino)hexyl]-2-thienyl]butyric Acid] | 2 nM | 89% | 398 nM | 1.1 mg/kg | 78%
O=C(O)CCCc1ccc(C(CCCC(F)(F)C(F)(F)C(F)(F)F)NS(=O)(=O)c2ccc(F)cc2)cc1 (centres unmarked) [Example 202, 4-[4-[5,5,6,6,7,7,7-Heptafluoro-1-(4-fluorophenylsulfonylamino)heptyl]phenyl]butyric Acid] | 12.6 nM | 85% | 794 nM | 0.97 mg/kg | 93%
O=C(O)CCCc1ccc(C(CCC(F)(F)C(F)(F)C(F)(F)F)NS(=O)(=O)c2ccc(F)cc2)s1 (centres unmarked) [Example 176, 4-[5-[4,4,5,5,6,6,6-Heptafluoro-1-(4-fluorophenylsulfonylamino)hexyl]-2-thienyl]butyric Acid] | 3.16 nM | 78% | 126 nM | 0.14 mg/kg | 86%
O=C(O)CCCc1ccc(C(CCC(F)(F)C(F)(F)C(F)(F)C(F)(F)F)NS(=O)(=O)c2ccc(F)cc2)s1 (centres unmarked) [Example 179, 4-[5-[4,4,5,5,6,6,7,7,7-Nonafluoro-1-(4-fluorophenylsulfonylamino)heptyl]-2-thienyl]butyric Acid] | 7.94 nM | 93% | 100 nM | 0.17 mg/kg | 78%
CC(C)CCCC(NS(=O)(=O)c1ccc(Cl)cc1)c1ccc(CCCC(=O)O)cc1 (centres unmarked) [Reference compound 2, 4-[4-[1-(4-chlorophenylsulfonylamino)-5-methylhexyl]phenyl]butyric acid, reference compound] | 1.26 nM | 81% | 251 nM | 9.2 mg/kg | 50%
O=C(O)CCCc1ccc(C(CCCCCC(F)(F)F)NS(=O)(=O)c2ccc(F)cc2)s1 (centres unmarked) [Example 172, 4-[5-[7,7,7-Trifluoro-1-(4-fluorophenylsulfonylamino)heptyl]-2-thienyl]butyric Acid] | 0.398 nM | 73% | 251 nM | 2.4 mg/kg | 84%
